In US8993574B2, “Pyrrole antifungal agents” (F2G Ltd, priority 2008, dated 2015):

Test system: Aspergillus fumigatus AF210
Assay: Checkerboard titration, fractional inhibitory concentration (FIC), RPMI media
Assay type: cell-based
Details: compound A in combination with caspofungin as compound B
Description: In the checkerboard titration doubling dilutions of compound A (e.g. an antifungal pyrrole compound as defined earlier) are prepared in every row across a microtitre plate and doubling dilutions of compound B (e.g. a second antifungal agent as defined earlier) are prepared in every column down a microtitre plate. The activity of the two compounds in combination can be compared with the activity of each compound alone. In such experiments a narrow range of dilutions can be tested for each compound around the minimum inhibitory concentration (MIC).
As an example, a stock solution of compound A (e.g. 5 mg/ml) can be prepared in a suitable solvent such as DMSO. A stock solution of compound B (e.g. caspofungin) is also prepared (e.g. 2 mg/ml). The stock solution of compound A is diluted (e.g. at a concentration of 1:2000 in water) to 2.5 μg/ml. […]
To determine the combined effect of the compounds the Fractional inhibitory concentration FIC is determined, where FIC is defined as: FIC=FICA+FICB=CA^comb/MICA^alone+CB^comb/MICB^alone where MICA^alone and MICB^alone are the MICs of compounds A and B when acting alone and CA^comb and CB^comb are concentrations of compounds A and B at the isoeffective combinations, respectively. […]

## Cc1cc(C)nc(N2CCN(c3ccc(NC(=O)C(=O)c4c(-c5ccccc5)cc(C)n4C)cc3)CC2)c1 [Example 1, 2-(1,5-Dimethyl-3-phenyl-1H-pyrrol-2-yl)-N-{4-[4-(4,6-dimethyl-pyridin-2-yl)-piperazin-1-yl]-phenyl}-2-oxo-acetamide]
  FIC (fractional inhibitory concentration): 0.67
